A value given as a limit tells only on which side of the number the result lay.

T1 sequence (P30547 whole entry): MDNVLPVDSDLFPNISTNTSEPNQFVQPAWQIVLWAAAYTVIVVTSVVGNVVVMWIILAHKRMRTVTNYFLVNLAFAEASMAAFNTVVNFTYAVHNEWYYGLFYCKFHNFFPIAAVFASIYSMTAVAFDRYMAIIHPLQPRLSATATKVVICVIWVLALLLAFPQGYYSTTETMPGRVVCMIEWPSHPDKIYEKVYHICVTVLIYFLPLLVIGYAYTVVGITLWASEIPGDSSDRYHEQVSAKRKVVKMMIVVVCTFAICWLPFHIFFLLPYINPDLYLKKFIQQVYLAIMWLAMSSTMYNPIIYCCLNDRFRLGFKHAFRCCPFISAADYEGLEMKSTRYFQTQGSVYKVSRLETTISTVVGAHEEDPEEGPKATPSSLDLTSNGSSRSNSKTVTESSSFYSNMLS

The assay has as its target T1, NK1 receptor (Cavia porcellus, UniProt P30547).
T1 construct: Guinea pigs (300-500 g) were anaesthetised with pentobarbital (50 mg/kg i.p.); from tissue; host or cells: whole anaesthetised guinea pig (in vivo)
Nature of the assay: Inhibition of NK1-induced fall in blood pressure in anaesthetised guinea pigs (duration of activity). It counts as in vivo, guinea pig. Conditions: test substance intraduodenal, NK1-agonist 0.2 μmol/kg i.v. every 30 min for 6 to 8 hours. The method, then: Determining the Duration of Activity
Inhibition of NK1-induced Fall in Blood Pressure in Anaesthetised Guinea Pigs
Guinea pigs (300-500 g) were anaesthetised with pentobarbital (50 mg/kg i.p.) and prepared for duodenal administration of the test substances and for measurement of the arterial blood pressure. A temporary drop in blood pressure was induced by the intravenous administration of an NK1-agonist (0.2 μmol/kg at 30 minute intervals). After the basal value of the blood pressure had been determined the test substances were administered by intraduodenal route. Then the NK1-agonist was administered intravenously every 30 min for 6 to 8 hours. The results were expressed as a percentage inhibition in the NK1-induced fall in blood pressure and the ED50 values were calculated by regression analysis.
As to `CN(CCc1cc(C(F)(F)F)cc(C(F)(F)F)c1)C(=O)[C@H](c1ccccc1)N1CCC(N(C)CCO)CC1` [Example B-1, reference compound], the Duration of activity came out at 120 min.
The value for `CN(CCc1cc(C(F)(F)F)cc(C(F)(F)F)c1)C(=O)[C@H](c1ccccc1)N1CCC(N(CCO)CCO)CC1` [Example B-4, reference compound] was 120 min; that for `CN(CCc1cc(C(F)(F)F)cc(C(F)(F)F)c1)C(=O)C(c1ccccc1)N1CCC(N(CCO)CCCO)CC1` (stereo not shown) [Example 4, N-[2-(3,5-bis-trifluoromethyl-phenyl)-ethyl]-2-{4-[(2-hydroxy-ethyl)-(3-hydroxy-propyl)-amino]-piperidin-1-yl}-N-methyl-2-phenyl-acetamide] was greater than 360 min; that for `CN(CCc1cc(C(F)(F)F)cc(C(F)(F)F)c1)C(=O)C(c1ccccc1)N1CCC(NC(CO)CO)CC1` (stereo not shown) [Example 2, N-[2-(3,5-bis-trifluoromethyl-phenyl)-ethyl]-2-[4-(2-hydroxy-1-hydroxymethyl-ethylamino)-piperidin-1-yl]-N-methyl-2-phenylacetamide] was greater than 360 min.
Regarding `CN(CCc1cc(C(F)(F)F)cc(C(F)(F)F)c1)C(=O)C(c1ccccc1)N1CCC(N(C)CCCO)CC1` (stereo not shown) [Example 1, N-[2-(3,5-Bis-trifluoromethyl-phenyl)-ethyl]-2-{4-[(3-hydroxy-propyl)-methyl-amino]-piperidine-1-yl}-N-methyl-2-phenyl-acetamide], the Duration of activity is reported as greater than 360 min.
Under `CN(CCc1cc(C(F)(F)F)cc(C(F)(F)F)c1)C(=O)[C@H](c1ccccc1)N1CCC(N(CCCO)CC2CC2)CC1` [Example 5, (S)—N-[2-(3.5-bis-trifluoromethyl-phenyl)-ethyl]-2-{4-[cyclopropylmethyl-(3-hydroxy-propyl)-amino]-piperidin-1-yl}-N-methyl-2-phenyl-acetamide] stands greater than 360 min.
The compound `CN(CCc1cc(C(F)(F)F)cc(C(F)(F)F)c1)C(=O)C(c1ccccc1)N1CCC(N(C)CC2CC2)CC1` (stereo not shown) [Example 3, N-[2-(3,5-bis-trifluoromethyl-phenyl)-ethyl]-2-[4-(cyclopropylmethyl-methyl-amino)-piperidin-1-yl]-N-methyl-2-phenyl-acetamide] yielded a Duration of activity greater than 360 min.

The values are drawn from patent publication US6747044B2, “Neurokinin antagonists” (Boehringer Ingelheim Pharma KG, priority 2000, dated 2004).
